Consider 34 molecules from ChEMBL document CHEMBL4130448, “Novel SERMs based on 3-aryl-4-aryloxy-2H-chromen-2-one skeleton - A possible way to dual ERα/VEGFR-2 ligands for treatment of breast cancer” (Eur J Med Chem, 2017).

The subject of one experiment is Ishikawa. The experiment is described as follows: cells. Particulars: Homo sapiens, 48 h.
A further experiment deals with MCF7. The experiment is described as follows: cells. The conditions noted are these: Homo sapiens, MCF7, 48 h.
For the next experiment, the target named is T1, Estrogen receptor (Homo sapiens, UniProt P03372).
T1 sequence (P03372 whole entry): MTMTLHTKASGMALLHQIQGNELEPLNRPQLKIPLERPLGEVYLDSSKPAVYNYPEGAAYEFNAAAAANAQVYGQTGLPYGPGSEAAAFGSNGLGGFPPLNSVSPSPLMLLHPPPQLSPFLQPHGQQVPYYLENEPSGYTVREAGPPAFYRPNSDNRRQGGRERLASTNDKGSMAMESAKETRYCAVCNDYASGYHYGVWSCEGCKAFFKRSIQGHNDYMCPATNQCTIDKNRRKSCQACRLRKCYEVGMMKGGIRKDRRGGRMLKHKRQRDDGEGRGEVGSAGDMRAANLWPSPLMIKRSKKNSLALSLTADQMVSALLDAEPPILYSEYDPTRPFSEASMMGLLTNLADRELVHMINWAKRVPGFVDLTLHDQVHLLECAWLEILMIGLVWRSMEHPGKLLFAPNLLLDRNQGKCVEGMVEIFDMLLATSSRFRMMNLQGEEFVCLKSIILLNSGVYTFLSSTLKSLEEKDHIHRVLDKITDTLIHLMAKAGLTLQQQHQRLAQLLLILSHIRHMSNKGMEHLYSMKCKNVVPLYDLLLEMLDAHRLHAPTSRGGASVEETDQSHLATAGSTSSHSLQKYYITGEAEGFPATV
Put plainly: Displacement of fluorescent estrogen ligand from recombinant human ERalpha expressed in insect cells incubated for 2 hrs by polarization.

The subject of a further experiment is HUVEC. Put plainly: Antiangiogenic activity against HUVEC incubated for 48 hrs by MTT assay. It is filed as functional, cell-based. The conditions noted are these: Homo sapiens. (Formazan colour is commonly taken as a measure of viable cells.)
Experiment [1] deals with Vascular endothelial growth factor receptor 2 (Homo sapiens) (UniProt P35968). Put plainly: Inhibition of His-tagged human VEGFR2 at 40 uM incubated for 1 hr by HTRF assay.
Sequence of Vascular endothelial growth factor receptor 2 (Homo sapiens) (P35968 whole entry): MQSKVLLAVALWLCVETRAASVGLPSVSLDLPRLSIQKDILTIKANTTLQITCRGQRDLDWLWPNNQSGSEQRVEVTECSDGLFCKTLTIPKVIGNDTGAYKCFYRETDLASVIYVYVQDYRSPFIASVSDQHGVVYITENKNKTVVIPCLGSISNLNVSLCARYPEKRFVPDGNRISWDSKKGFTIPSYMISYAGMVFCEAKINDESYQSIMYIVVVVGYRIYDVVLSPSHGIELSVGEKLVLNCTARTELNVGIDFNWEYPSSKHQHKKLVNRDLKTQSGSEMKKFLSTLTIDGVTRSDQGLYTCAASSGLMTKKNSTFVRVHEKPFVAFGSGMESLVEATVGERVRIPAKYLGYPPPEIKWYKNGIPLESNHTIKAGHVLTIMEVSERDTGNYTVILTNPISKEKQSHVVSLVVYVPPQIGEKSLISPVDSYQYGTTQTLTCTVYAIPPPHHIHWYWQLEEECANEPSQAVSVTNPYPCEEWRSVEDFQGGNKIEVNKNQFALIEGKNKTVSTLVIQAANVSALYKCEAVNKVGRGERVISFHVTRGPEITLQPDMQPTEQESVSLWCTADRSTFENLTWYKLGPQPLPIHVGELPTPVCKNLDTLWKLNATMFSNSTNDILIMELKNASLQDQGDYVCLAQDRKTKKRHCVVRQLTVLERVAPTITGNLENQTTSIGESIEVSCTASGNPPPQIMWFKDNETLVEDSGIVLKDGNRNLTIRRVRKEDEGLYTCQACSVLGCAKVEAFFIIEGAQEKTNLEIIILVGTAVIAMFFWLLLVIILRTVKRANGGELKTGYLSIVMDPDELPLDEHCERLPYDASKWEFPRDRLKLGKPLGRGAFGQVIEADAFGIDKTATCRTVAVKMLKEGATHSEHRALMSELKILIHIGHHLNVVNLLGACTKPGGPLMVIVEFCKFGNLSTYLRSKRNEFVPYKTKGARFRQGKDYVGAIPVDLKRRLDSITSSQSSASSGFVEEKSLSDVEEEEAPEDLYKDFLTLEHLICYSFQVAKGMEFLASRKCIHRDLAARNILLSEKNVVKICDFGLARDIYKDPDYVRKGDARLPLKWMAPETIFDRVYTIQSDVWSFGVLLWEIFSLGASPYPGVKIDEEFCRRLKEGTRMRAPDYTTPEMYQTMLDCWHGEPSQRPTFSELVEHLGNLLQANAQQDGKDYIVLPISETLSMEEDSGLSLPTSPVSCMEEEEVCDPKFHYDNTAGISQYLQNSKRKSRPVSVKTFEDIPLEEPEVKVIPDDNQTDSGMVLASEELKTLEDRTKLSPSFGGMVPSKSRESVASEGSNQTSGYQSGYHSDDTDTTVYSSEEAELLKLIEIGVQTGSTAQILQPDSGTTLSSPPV

Description for Ishikawa: Cytotoxicity in human Ishikawa cells assessed as inhibition of cell growth incubated for 48 hrs by MTT assay
Description for MCF7: Cytotoxicity in human MCF7 cells assessed as inhibition of cell growth incubated for 48 hrs by MTT assay

What is called IC50 is the concentration that gives 50% inhibition. For `COc1ccc(-c2c(Oc3ccc(OCCN4CCCC4)cc3)c3ccc(OC)cc3oc2=O)cc1`, the IC50 in the experiment with Ishikawa is 8.53 µM; in the experiment on MCF7, 14.4 µM; on Estrogen receptor, > 10 µM.

Take `O=c1oc2cc(O)ccc2c(Oc2ccc(OCCN3CCCC3)cc2)c1-c1ccc(O)cc1`: the results for the IC50 in the experiment on Ishikawa, with MCF7 and at Estrogen receptor were 24.5 µM, 23.9 µM and 6.84 µM, respectively.

As for `CCN(CC)CCOc1ccc(Nc2c(-c3ccc(O)cc3)c(=O)oc3cc(O)ccc23)cc1`, the IC50 worked out at 29.1 µM in the experiment on Ishikawa, 27.5 µM with MCF7 and 5.97 µM at Estrogen receptor.

With `CCN(CC)CCOc1ccc(Oc2c(-c3ccc(F)cc3)c(=O)oc3cc(OC)ccc23)cc1`, the IC50 was 15.7 µM in the experiment on Ishikawa, 16.6 µM with MCF7 and > 10 µM at Estrogen receptor.

For `COc1ccc2c(Nc3ccc(OCCN4CCCC4)cc3)c(-c3ccc(F)cc3)c(=O)oc2c1`, the IC50 in the experiment on Ishikawa was 12.5 µM; in the experiment on MCF7, 21.5 µM; on Estrogen receptor, > 10 µM.

With `CC/C(=C(\c1ccccc1)c1ccc(OCCN(C)C)cc1)c1ccccc1` [TAMOXIFEN], the IC50 is 20.7 µM in the experiment with Ishikawa and 14.3 µM with MCF7.

As to `CN(C)CCOc1ccc(Nc2c(-c3ccc(F)cc3)c(=O)oc3cc(O)ccc23)cc1`, the IC50 with Ishikawa is 24.8 µM; with MCF7, 19.3 µM; at Estrogen receptor, 6.62 µM.

As a reminder, the inhibition is the change of the read-out against control, counted positive when it falls. Read a low inhibition as a weak effect. In the case of `O=c1oc2cc(O)ccc2c(Oc2ccc(OCCN3CCCCC3)cc2)c1-c1ccc(O)cc1`, the IC50 worked out at 28.4 µM in the experiment on Ishikawa, 19.7 µM with MCF7, 23.9 µM with HUVEC and 2.62 µM at Estrogen receptor. Moreover, the inhibition in experiment [1] worked out at 66.1%.

With `CCN(CC)CCOc1ccc(Nc2c(-c3ccc(F)cc3)c(=O)oc3cc(OC)ccc23)cc1`, the IC50 in the experiment on Ishikawa is 17.9 µM; with MCF7 it was 26.3 µM; at Estrogen receptor it was > 10 µM.

On to `COc1ccc(-c2c(Oc3ccc(OCCN(C)C)cc3)c3ccc(OC)cc3oc2=O)cc1`, for which the IC50 in the experiment on Ishikawa is 11.4 µM; in the experiment on MCF7 it was 17.8 µM; on Estrogen receptor, > 10 µM.

Take `COc1ccc2c(Oc3ccc(OCCN4CCCC4)cc3)c(-c3ccc(F)cc3)c(=O)oc2c1`: the IC50 was 15.1 µM with Ishikawa, 14.6 µM in the experiment with MCF7 and > 10 µM at Estrogen receptor.

Consider `CCN(CC)CCOc1ccc(Oc2c(-c3ccc(F)cc3)c(=O)oc3cc(O)ccc23)cc1`, for which the IC50 with Ishikawa was 17.4 µM; in the experiment with MCF7, 21.3 µM; at Estrogen receptor it was 3.55 µM.

Regarding `COc1ccc2c(Nc3ccc(OCCN4CCCCC4)cc3)c(-c3ccc(F)cc3)c(=O)oc2c1`, the 50% inhibitory concentration (IC50) in the experiment with Ishikawa was determined as 8.71 µM; in the experiment with MCF7, 12.6 µM; in the experiment with HUVEC, 9.05 µM; at Estrogen receptor, 7.96 µM. This molecule also returned an inhibition in experiment [1] of 66%.

Regarding `CCN(CC)CCOc1ccc(Oc2c(-c3ccc(O)cc3)c(=O)oc3cc(O)ccc23)cc1`, the values for the IC50 in the experiment on Ishikawa, in the experiment on MCF7 and at Estrogen receptor were > 50 µM, > 50 µM and > 10 µM, respectively.

As to `CCN(CC)CCOc1ccc(Nc2c(-c3ccc(F)cc3)c(=O)oc3ccccc23)cc1`, the IC50 in the experiment with Ishikawa is 24.7 µM; in the experiment on MCF7, 26.4 µM; at Estrogen receptor it was > 10 µM.

`O=c1oc2cc(O)ccc2c(Nc2ccc(OCCN3CCCC3)cc2)c1-c1ccc(F)cc1`: the figures for the IC50 with Ishikawa, in the experiment with MCF7 and on Estrogen receptor were 21.5 µM, 13.9 µM and 4.53 µM, respectively.

In the case of `O=c1oc2ccccc2c(Nc2ccc(OCCN3CCCC3)cc2)c1-c1ccc(F)cc1`, the IC50 is 25.7 µM in the experiment on Ishikawa, 26.1 µM in the experiment on MCF7 and > 10 µM on Estrogen receptor.

With `COc1ccc2c(Oc3ccc(OCCN(C)C)cc3)c(-c3ccc(F)cc3)c(=O)oc2c1`, the IC50 with Ishikawa stood at 17.3 µM; in the experiment with MCF7, 15.3 µM; on Estrogen receptor, 8.96 µM.

For `COc1ccc2c(Nc3ccc(OCCN(C)C)cc3)c(-c3ccc(F)cc3)c(=O)oc2c1`, the IC50 was 13.5 µM in the experiment with Ishikawa, 31.6 µM in the experiment with MCF7 and > 10 µM on Estrogen receptor.

Regarding `CCN(CC)CCOc1ccc(Oc2c(-c3ccc(OC)cc3)c(=O)oc3cc(OC)ccc23)cc1`, the IC50 in the experiment with Ishikawa is 9.32 µM; with MCF7 it was 15.3 µM; at Estrogen receptor, > 10 µM.

Take `COc1ccc(-c2c(Nc3ccc(OCCN4CCCCC4)cc3)c3ccc(O)cc3oc2=O)cc1`: the IC50 in the experiment on Ishikawa was 14.4 µM; in the experiment with MCF7, 11.4 µM; with HUVEC it was 16.2 µM; on Estrogen receptor, 6.64 µM. The molecule further displayed an inhibition in experiment [1] of 59.3%.

As for `CCN(CC)CCOc1ccc(Nc2c(-c3ccc(F)cc3)c(=O)oc3cc(O)ccc23)cc1`, the IC50 with Ishikawa worked out at 17.2 µM; in the experiment with MCF7, 17.5 µM; on Estrogen receptor it was 4.37 µM.

As for `COc1cc2/c(=N/c3ccc(Br)cc3F)nc[nH]c2cc1OCC1CCN(C)CC1` [VANDETANIB], the values for the IC50 in the experiment with MCF7 and in the experiment on HUVEC were 16.5 µM and 6.76 µM, respectively. Further, the inhibition in experiment [1] amounted to 95.7%.

With `CN(C)CCOc1ccc(Nc2c(-c3ccc(O)cc3)c(=O)oc3cc(O)ccc23)cc1`, the values for the IC50 with Ishikawa, with MCF7 and on Estrogen receptor were 30.2 µM, 28.4 µM and 8.21 µM, respectively.

Turning to `CN(C)CCOc1ccc(Oc2c(-c3ccc(O)cc3)c(=O)oc3cc(O)ccc23)cc1`, the IC50 was determined as 37 µM with Ishikawa, 41.4 µM in the experiment with MCF7 and 8.43 µM on Estrogen receptor.

Turning to `O=c1oc2cc(O)ccc2c(Nc2ccc(OCCN3CCCCC3)cc2)c1-c1ccc(F)cc1`, the IC50 in the experiment on Ishikawa worked out at 10.4 µM; with MCF7, 7.06 µM; in the experiment with HUVEC, 9.92 µM; on Estrogen receptor it was 3.86 µM. The inhibition in experiment [1] came out at 88.4%.

For `CN(C)CCOc1ccc(Oc2c(-c3ccc(F)cc3)c(=O)oc3cc(O)ccc23)cc1`, the results for the IC50 in the experiment on Ishikawa, with MCF7 and on Estrogen receptor were 18.7 µM, 16.6 µM and 6.43 µM, respectively.

`COc1ccc(-c2c(Oc3ccc(OCCN4CCCCC4)cc3)c3ccc(OC)cc3oc2=O)cc1`: the IC50 with Ishikawa was 7.47 µM; in the experiment with MCF7, 9.62 µM; in the experiment with HUVEC, 7.64 µM; at Estrogen receptor it was 9.42 µM. In experiment [1], the inhibition came out at 67.6%.

For the molecule `CN(C)CCOc1ccc(Nc2c(-c3ccc(F)cc3)c(=O)oc3ccccc23)cc1`, the IC50 in the experiment on Ishikawa was 28.5 µM; in the experiment with MCF7, 32.5 µM; at Estrogen receptor, > 10 µM.

Regarding `O=c1oc2ccccc2c(Nc2ccc(OCCN3CCCCC3)cc2)c1-c1ccc(F)cc1`, the IC50 with Ishikawa was determined as 10.3 µM; with MCF7, 11.3 µM; in the experiment with HUVEC it was 17.2 µM; on Estrogen receptor, 7.79 µM. In experiment [1], this molecule yielded an inhibition of 41.8%.

With `O=c1oc2cc(O)ccc2c(Nc2ccc(OCCN3CCCC3)cc2)c1-c1ccc(O)cc1`, the concentration for half-maximal inhibition (IC50) stood at 26.7 µM with Ishikawa, 20.7 µM with MCF7 and 6.43 µM at Estrogen receptor.

Regarding `COc1ccc2c(Oc3ccc(OCCN4CCCCC4)cc3)c(-c3ccc(F)cc3)c(=O)oc2c1`, the IC50 came out at 8.41 µM in the experiment with Ishikawa, 9.32 µM in the experiment with MCF7, 13.6 µM in the experiment with HUVEC and 6.87 µM on Estrogen receptor. This molecule yielded an inhibition in experiment [1] of 55.1%.

For the molecule `O=c1oc2cc(O)ccc2c(Nc2ccc(OCCN3CCCCC3)cc2)c1-c1ccc(O)cc1`, the 50% inhibitory concentration (IC50) was 24.6 µM in the experiment on Ishikawa, 18.7 µM in the experiment on MCF7, 30.8 µM with HUVEC and 3.82 µM on Estrogen receptor. This molecule also yielded an inhibition in experiment [1] of 83.2%.

As for `O=c1oc2cc(O)ccc2c(Oc2ccc(OCCN3CCCC3)cc2)c1-c1ccc(F)cc1`, the IC50 with Ishikawa came to 22.6 µM; in the experiment on MCF7 it was 16.8 µM; on Estrogen receptor, 4.27 µM.
